Laboratory results published in ChEMBL document CHEMBL1955734, “JFCR39, a panel of 39 human cancer cell lines, and its application in the discovery and development of anticancer drugs” (Bioorg Med Chem, 2012).

How the values were obtained:
[1] = biological target: Telomerase reverse transcriptase (Homo sapiens, UniProt O14746); experiment: Inhibition of telomerase
[2] = tested on: DMS-114; experiment: Growth inhibition of human DMS114 cells; type: functional, cell-based
[3] = tested on: SF-268; experiment: Growth inhibition of human SF268 cells; type: functional, cell-based
[4] = tested on: HCT-116; experiment: Growth inhibition of human HCT116 cells; type: functional, cell-based
[5] = tested on: U-251; experiment: Growth inhibition of human U251 cells; type: functional, cell-based
[6] = tested on: OVCAR-4; experiment: Growth inhibition of human OVCAR4 cells; type: functional, cell-based
[7] = Growth inhibition of human NCI-H483 cells; type: functional, cell-based
[8] = tested on: MKN-45; experiment: Growth inhibition of human MKN45 cells; type: functional, cell-based
[9] = tested on: DMS-273; experiment: Growth inhibition of human DMS273 cells; type: functional, cell-based
[10] = tested on: OVCAR-5; experiment: Growth inhibition of human OVCAR5 cells; type: functional, cell-based
[11] = Growth inhibition of human MKN1 cells; type: functional, cell-based; settings: MKN-1
[12] = tested on: LOX IMVI; experiment: Growth inhibition of human LOXIMVI cells; type: functional, cell-based
[13] = tested on: MCF7; experiment: Growth inhibition of human MCF7 cells; type: functional, cell-based
[14] = tested on: NCI-H23; experiment: Growth inhibition of human NCI-H23 cells; type: functional, cell-based
[15] = tested on: MKN-28; experiment: Growth inhibition of human MKN28 cells; type: functional, cell-based
[16] = tested on: OVCAR-3; experiment: Growth inhibition of human OVCAR3 cells; type: functional, cell-based
[17] = tested on: SF-295; experiment: Growth inhibition of human SF295 cells; type: functional, cell-based
[18] = tested on: OVCAR-8; experiment: Growth inhibition of human OVCAR8 cells; type: functional, cell-based
[19] = Growth inhibition of human HBC4 cells; type: functional, cell-based
[20] = Growth inhibition of human HBC5 cells; type: functional, cell-based
[21] = tested on: MKN-74; experiment: Growth inhibition of human MKN74 cells; type: functional, cell-based
[22] = Growth inhibition of human BSY1 cells; type: functional, cell-based; settings: BSY-1
[23] = tested on: SNB-78; experiment: Growth inhibition of human SNB78 cells; type: functional, cell-based
[24] = Growth inhibition of human RXF631L cells; type: functional; settings: RXF 631
[25] = tested on: ACHN; experiment: Growth inhibition of human ACHN cells; type: functional, cell-based
[26] = tested on: PC-3; experiment: Growth inhibition of human PC3 cells; type: functional, cell-based
[27] = tested on: SF-539; experiment: Growth inhibition of human SF539 cells; type: functional, cell-based
[28] = tested on: St-4; experiment: Growth inhibition of human St-4 cells; type: functional, cell-based
[29] = tested on: HCT-15; experiment: Growth inhibition of human HCT15 cells; type: functional, cell-based
[30] = tested on: KM12; experiment: Growth inhibition of human KM12 cells; type: functional, cell-based
[31] = tested on: NCI-H522; experiment: Growth inhibition of human NCI-H522 cells; type: functional, cell-based
[32] = tested on: MDA-MB-231; experiment: Growth inhibition of human MDA-MB-231 cells; type: functional, cell-based
[33] = tested on: SNB-75; experiment: Growth inhibition of human SNB75 cells; type: functional, cell-based
[34] = tested on: NCI-H226; experiment: Growth inhibition of human NCI-H226 cells; type: functional, cell-based
[35] = tested on: HCC 2998; experiment: Growth inhibition of human HCC2998 cells; type: functional, cell-based
[36] = tested on: A549; experiment: Growth inhibition of human A549 cells; type: functional, cell-based
[37] = tested on: SK-OV-3; experiment: Growth inhibition of human SKOV3 cells; type: functional, cell-based
[38] = tested on: HT-29; experiment: Growth inhibition of human HT-29 cells; type: functional, cell-based
[39] = tested on: MKN-7; experiment: Growth inhibition of human MKN7 cells; type: functional, cell-based
[40] = tested on: DU-145; experiment: Growth inhibition of human DU145 cells; type: functional, cell-based

Chain of Telomerase reverse transcriptase (O14746 whole entry): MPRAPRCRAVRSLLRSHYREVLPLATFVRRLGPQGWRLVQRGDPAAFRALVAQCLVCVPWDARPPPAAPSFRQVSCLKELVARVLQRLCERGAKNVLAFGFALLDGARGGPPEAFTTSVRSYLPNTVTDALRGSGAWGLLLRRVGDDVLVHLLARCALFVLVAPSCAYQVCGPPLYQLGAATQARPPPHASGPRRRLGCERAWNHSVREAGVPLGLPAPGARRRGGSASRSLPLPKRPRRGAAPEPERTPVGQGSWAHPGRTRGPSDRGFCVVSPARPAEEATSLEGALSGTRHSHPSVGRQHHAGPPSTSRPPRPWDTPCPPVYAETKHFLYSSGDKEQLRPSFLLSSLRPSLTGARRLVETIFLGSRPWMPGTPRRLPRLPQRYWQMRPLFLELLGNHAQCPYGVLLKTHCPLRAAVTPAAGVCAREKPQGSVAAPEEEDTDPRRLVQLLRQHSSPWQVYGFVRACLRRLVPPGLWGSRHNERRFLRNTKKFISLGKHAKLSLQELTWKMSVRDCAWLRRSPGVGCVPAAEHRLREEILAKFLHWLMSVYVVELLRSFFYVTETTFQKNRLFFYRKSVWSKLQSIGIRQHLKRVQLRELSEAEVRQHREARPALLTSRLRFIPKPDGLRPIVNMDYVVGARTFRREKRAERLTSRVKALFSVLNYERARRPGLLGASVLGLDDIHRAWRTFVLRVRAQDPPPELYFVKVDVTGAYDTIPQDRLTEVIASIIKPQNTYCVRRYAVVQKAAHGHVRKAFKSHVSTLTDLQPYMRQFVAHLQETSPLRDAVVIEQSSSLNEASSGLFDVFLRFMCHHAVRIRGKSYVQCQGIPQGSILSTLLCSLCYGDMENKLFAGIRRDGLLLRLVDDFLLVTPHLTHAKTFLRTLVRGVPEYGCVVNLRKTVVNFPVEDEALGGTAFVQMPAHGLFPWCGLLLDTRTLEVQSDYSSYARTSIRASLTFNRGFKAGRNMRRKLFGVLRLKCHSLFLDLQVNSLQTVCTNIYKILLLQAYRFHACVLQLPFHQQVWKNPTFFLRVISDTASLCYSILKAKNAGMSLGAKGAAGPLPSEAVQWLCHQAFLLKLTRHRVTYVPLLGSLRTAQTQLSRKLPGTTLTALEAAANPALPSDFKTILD

`COc1ccc2cc3[n+](cc2c1OC)CCc1cc2c(cc1-3)OCO2` [BERBERINE] showed an IC50 [1] of 37000 nM.

Work on `CS(=O)(=O)N1CCN(Cc2cc3nc(-c4cccc5[nH]ncc45)nc(N4CCOCC4)c3s2)CC1` [PICTILISIB] yielded a GI50 [2] of 1200 nM, a GI50 [3] of 4070 nM and a GI50 [4] of 1350 nM. It also gave a GI50 [5] of 3160 nM, a GI50 [6] of 1740 nM and a GI50 [7] of 275 nM. It also gave a GI50 [8] of 282 nM, a GI50 [9] of 372 nM and a GI50 [10] of 550 nM. For the same molecule, the GI50 [11] was 83.2 nM, the GI50 [12] was 513 nM and the GI50 [13] was 46.8 nM. For the same molecule, the GI50 [14] was 1860 nM, the GI50 [15] was 3020 nM and the GI50 [16] was 195 nM. The GI50 [17] was 427 nM, the GI50 [18] was 1860 nM and the GI50 [19] was 933 nM. The GI50 [20] was 251 nM, the GI50 [21] was 955 nM and the GI50 [22] was 126 nM. It also gave a GI50 [23] of 302 nM, a GI50 [24] of 132 nM and a GI50 [25] of 851 nM. It also gave a GI50 [26] of 219 nM, a GI50 [27] of 316 nM and a GI50 [28] of 2750 nM. It also gave a GI50 [29] of 759 nM, a GI50 [30] of 1740 nM and a GI50 [31] of 263 nM. It also gave a GI50 [32] of 3470 nM, a GI50 [33] of 79.4 nM and a GI50 [34] of 617 nM. For the same molecule, the GI50 [35] was 513 nM, the GI50 [36] was 708 nM and the GI50 [37] was 302 nM. It also gave a GI50 [38] of 501 nM, a GI50 [39] of 316 nM and a GI50 [40] of 1410 nM.

Work on `Cn1cc(NC(=O)CC[S+](C)C)cc1-c1nc2cc(C(=O)Nc3ccc(N(CCCl)CCCl)cc3)ccc2[nH]1` yielded an IC50 [2] of 710 nM, an IC50 [3] of 710 nM and an IC50 [4] of 710 nM. It also gave an IC50 [5] of 710 nM, an IC50 [6] of 710 nM and an IC50 [7] of 710 nM. It also gave an IC50 [8] of 710 nM, an IC50 [9] of 710 nM and an IC50 [10] of 710 nM. It also gave an IC50 [11] of 710 nM, an IC50 [12] of 710 nM and an IC50 [13] of 710 nM. For the same molecule, the IC50 [14] was 710 nM, the IC50 [15] was 710 nM and the IC50 [16] was 710 nM. For the same molecule, the IC50 [17] was 710 nM, the IC50 [18] was 710 nM and the IC50 [19] was 710 nM. The IC50 [20] was 710 nM, the IC50 [21] was 710 nM and the IC50 [22] was 710 nM. It also gave an IC50 [23] of 710 nM, an IC50 [24] of 710 nM and an IC50 [25] of 710 nM. It also gave an IC50 [26] of 710 nM, an IC50 [27] of 710 nM and an IC50 [28] of 710 nM. For the same molecule, the IC50 [29] was 710 nM, the IC50 [30] was 710 nM and the IC50 [31] was 710 nM. The IC50 [32] was 710 nM, the IC50 [33] was 710 nM and the IC50 [34] was 710 nM. It also gave an IC50 [35] of 710 nM, an IC50 [36] of 710 nM and an IC50 [37] of 710 nM. The IC50 [38] was 710 nM, the IC50 [39] was 710 nM and the IC50 [40] was 710 nM.

Work on `FC(F)c1nc2ccccc2n1-c1nc(N2CCOCC2)nc(N2CCOCC2)n1` [ZSTK-474] yielded a GI50 [2] of 479 nM, a GI50 [3] of 1480 nM and a GI50 [4] of 1380 nM. For the same molecule, the GI50 [5] was 1820 nM, the GI50 [6] was 1620 nM and the GI50 [7] was 372 nM. For the same molecule, the GI50 [8] was 245 nM, the GI50 [9] was 339 nM and the GI50 [10] was 1200 nM. The GI50 [11] was 245 nM, the GI50 [12] was 288 nM and the GI50 [13] was 182 nM. The GI50 [14] was 1050 nM, the GI50 [15] was 1950 nM and the GI50 [16] was 389 nM. It also gave a GI50 [17] of 347 nM, a GI50 [18] of 1260 nM and a GI50 [19] of 912 nM. The GI50 [20] was 170 nM, the GI50 [21] was 1020 nM and the GI50 [22] was 275 nM. The GI50 [23] was 355 nM, the GI50 [24] was 316 nM and the GI50 [25] was 603 nM. The GI50 [26] was 145 nM, the GI50 [27] was 479 nM and the GI50 [28] was 1910 nM. It also gave a GI50 [29] of 525 nM, a GI50 [30] of 2240 nM and a GI50 [31] of 263 nM. It also gave a GI50 [32] of 813 nM, a GI50 [33] of 155 nM and a GI50 [34] of 407 nM. The GI50 [35] was 851 nM, the GI50 [36] was 676 nM and the GI50 [37] was 398 nM. For the same molecule, the GI50 [38] was 646 nM, the GI50 [39] was 575 nM and the GI50 [40] was 724 nM.
